The source of these data is patent publication US6773727B1, “Use of gossypol and related terpenes for control of urban and agricultural pests” (The United States of America as represented by the …, priority 2001, dated 2004).

The subject of series [1] is tobacco budworm larval growth. To be noted: in vivo; cited from earlier work.
The conditions of series [2]: as recommended by manufacturers; pest not stated; cited from earlier work.
Series [3] relates to tobacco budworm (Heliothis virescens [F.]) larvae. Conditions: cited from earlier work; for effective dosage required to reduce by 50% the growth of larvae: larvae fed an artificial diet; for effect on growth: at 2.5 μmoles/g diet.
The next series relates to ants. Conditions: as recommended by manufacturers; cited from earlier work.
A further series relates to subterranean termites. Conditions: as recommended by manufacturers; cited from earlier work.
A further series has as its system bollworms. Conditions: 0.15% gossypol in an artificial diet; regular diet 54.5%; cited from earlier work.
Series [4] has as its system silverleaf whitefly (Bemisia argentifolii Bellows and Perring). To be noted: in vivo; cited from earlier work.
The subject of another series is protease. Conditions: cotton leafworm (S. littoralis); cited from earlier work.
The test system of another series is invertase. Conditions: cotton leafworm (S. littoralis); cited from earlier work.
Series [5] concerns tobacco budworm neonate larvae. To be noted: nine days, cited from earlier work.
In a further series the test system is tobacco budworms. Conditions: cited from earlier work.
For another series, the system named is amylase. To be noted: cotton leafworm (S. littoralis); cited from earlier work.
Series [6] relates to cotton leafworm (Spodoptera littoralis [Boisduval]). To be noted: cited from earlier work.
Series [7] deals with Spiny bollworm (Earias insulana Boisduval). To be noted: cited from earlier work.
In another series the test system is termites. In words: Termite lab colony bait matrix test (time to 100% mortality). The series is classed as in vivo, Formosan subterranean termite. As to the method: Gossypol acetic acid complex, which is a commercially available pure chemical, is dissolved in 1 ml acetone (#9006-03; J. T. Baker, Phillipsburg, NJ) using a sterile container. In the pure form as gossypol acetic acid complex and at concentrations of 5 ppm, gossypol is effective when mixed with a chitin synthesis inhibitor of the benzophenyl urea family or microbes such as fungi, bacteria, or viruses, taking a mean time to kill the lab test of four months. At concentrations greater than 500 ppm, without the addition of any other chemical, gossypol acetic acid complex as an insecticide can kill the lab test colony after a mean duration of one month.
Gossypol-acetic acid complex obtained from USDA-ARS-SRCC, New Orleans, La., crude cotton seed oil [8ETX(5)], from a commercial oil mill, and a commercial cotton meal [6MTN 925 CSM] were separately incorporated into a bait matrix as described in U.S. patent application Ser. No. 09/294,499 filed Apr. 20, 1999, at concentrations of 50, 25, and 12.5 ppm respectively. […] A total of 40 mg of the gossypol acetic acid complex, 250 mg of the crude cotton seed oil, and 900 mg of the cotton seed meal were individually weighed using a Mettler balance (model PB303; Fisher Scientific, Pittsburgh, Pa.). The gossypol-acetic acid complex was placed into a 50 ml sterile screw cap conical tube (#62.547.004; Sarstedt, Newton, N.C.) and dissolved with 1 ml acetone (#9006-03; J. T. Baker, Phillipsburg, N.J.).
Under a laminar flow hood, the gossypol acetone solution was mixed with 40 ml of sterile nutritional supplement containing 150 ppm of chitin inhibitors (prepared as reported by Rojas, M. G. and Morales-Ramos, J. A., Apr. 2001, “Bait matrix for delivery of chitin synthesis inhibitors to the Formosan subterranean termite [Isoptera: Rhinotermitidae],” J. Econ. Entomol. 94(2):506-510). The tube was tightly closed with a screw cap and manually shaken for 30 seconds. The mixture was added to 100 g of sterile cellulose as reported by Rojas and Morales-Ramos (2001) supra. The cotton seed oil was mixed with 300 ml of supplement and mixed with the sterile cellulose. The cotton seed meal was mixed and homogenized with the sterile cellulose, and then the 300 ml nutritional supplement was added. Each mixture was manually homogenized using a stainless steel spatula.
The mixtures were prepared as reported above for gossypol-chitin inhibitors, but without the addition of the chitin inhibitors. The fungal spores (400 mg) (Bio-Blast, EcoScience, Orlando, Fla.) were homogenized with the sterile cellulose, then the 300 ml of supplement gossypol-containing solution was added.
To encase the bait matrix, tubes made of fibrous casing material (#124B; L. E. M. Products, Inc., Miamitown, Ohio) were cut into 150 mm long portions as reported by Rojas and Morales-Ramos (2001) supra. Fifty grams of bait matrix containing a mixture of a single gossypol source and a single chitin synthesis inhibitor, or single gossypol source and fungal spores, were compacted into one end of the inlet tube, at which point the open end of the inlet tube was closed with a rubber band. The bait casing was placed inside of the foraging box adjacent to a 10 g piece of pine wood, taking care that they were partially covered with the sand. […]
All the experimental boxes were maintained under dark at 29±2° C., and 75±2% relative humidity. […] The time to reach 100% mortality was measured and recorded. […]

The test system of a further series is roaches. To be noted: as recommended by manufacturers; cited from earlier work.

Read-outs that look alike come from different tables or passages of the source.

On to caryophyllene, for which the “interaction with gossypol in retarding larval growth” value in series [1] is on record as “does not act synergistically”.
`O=C(NC(=O)c1c(F)cccc1F)Nc1cc(Cl)c(Oc2ncc(C(F)(F)F)cc2Cl)c(Cl)c1` [chlorfuazuron]: the lethal amount entry in series [2] is recorded as “about 0.5%”.
Regarding `CC1=CC(=O)c2c(C=O)c(O)c(O)c(C(C)C)c2C1=O` [hemigossypolone], the “effective dosage required to reduce by 50% the growth of larvae” value in series [3] is reported as 10.5 μmoles/g diet.
In the case of `CC(C)=CCC1C(C)=CCC2(C)C(=O)c3c(c(C=O)c(O)c(O)c3C(C)C)C(=O)C12` (stereo not drawn) [heliocide H1], the “effective dosage required to reduce by 50% the growth of larvae” value in series [3] was 2.5 μmoles/g diet.
Take `CC1(C)CNC(=NN=C(/C=C/c2ccc(C(F)(F)F)cc2)/C=C/c2ccc(C(F)(F)F)cc2)NC1` [hydramethylnon]: the values for the lethal amount result with ants and in the series with subterranean termites were “about 1.0%” and “about 0.030%”, respectively.
Consider `C=C1CC[C@H]2O[C@]2(C)CC[C@@H]2[C@@H]1CC2(C)C` [caryophyllene oxide], for which, in [1], the “interaction with gossypol in retarding larval growth” value is reported as “interacts synergistically”.
Regarding `Cc1cc2c(C(C)C)c(O)c(O)c(C=O)c2c(O)c1-c1c(C)cc2c(C(C)C)c(O)c(O)c(C=O)c2c1O` [gossypol], the results for the food utilization in the series on bollworms and in the series with tobacco budworms (gossypol at the 0.15% level) were 42.5% and “did not measurably affect food utilization”, respectively. The honeydew production entry in [4] is given as “did not affect”. Moreover, the mortality result in series [4] was “did not affect”; in series [6] (0.5% gossypol in the diet, after 10 days), roughly 70%. Besides, the protease activity result in the series on protease is on record as “inhibits”. Moreover, in the series on invertase, the invertase activity entry is “does not affect”. In series [5] (0.02% gossypol in artificial diet), the “larval size relative to control” value was 98%. The “larval weight relative to controls” value is 63% in series [5] (0.06% gossypol in the diet) and 13% in [5] (0.2% gossypol in the diet). In the series on tobacco budworms (gossypol 0.30%, 5- and 8-day-old larvae), the food consumption result is “impaired”. Also, the amylase activity entry with amylase was “inhibits”. Besides, the larvae eventually pupated in [6] (0.5% gossypol in the diet) is on record as 0.3%. Also, the feeding result in series [6] (1.0% gossypol in the diet) was “strongly suppressed feeding”. For the same compound, in [3], the “effective dosage required to reduce by 50% the growth of larvae” value is 0.8 μmoles/g diet. Further, the results for the pupated in series [7] (bolls containing 0.58% gossypol) and in series [7] (bolls containing 2.34% gossypol) were 45% and 9%, respectively. In addition, the “time until experimental colonies were dead” value with termites (gossypol with the chitin inhibitor in bait matrix, control boxes (no gossypol) still alive) is “about two”.
As for `O=C(NC(=O)c1c(F)cccc1F)Nc1ccc(Cl)cc1` [diflubenzuron], the lethal amount result in series [2] is “about 0.250%”.
`COc1c(O)c(C=O)c2c(c1C(C)C)C(=O)C1(C)CC=C(C)C(CC=C(C)C)C1C2=O` (stereo not drawn) [heliocide B1]: the “effective dosage required to reduce by 50% the growth of larvae” value in [3] is 4.6 μmoles/g diet.
Regarding `COc1c(O)c(C=O)c2c(c1C(C)C)C(=O)C1(C)CC=C(CCC=C(C)C)CC1C2=O` (stereo not drawn) [heliocide B2], the effect on growth result in series [3] was “no effect on growth”.
`CC(C)=CCCC1=CC[C@]2(C)C(=O)c3c(c(C=O)c(O)c(O)c3C(C)C)C(=O)[C@@H]2C1` [heliocide H2]: in [3], the “effective dosage required to reduce by 50% the growth of larvae” value is 11.2 μmoles/g diet.
As to `O=C(NC(=O)c1c(F)cccc1F)Nc1cc(Cl)c(OC(F)(F)C(F)F)c(Cl)c1` [hexaflumuron], in [2], the lethal amount entry is on record as “about 0.5%”.
Consider `O=[N+]([O-])NC1=NCCN1Cc1ccc(Cl)nc1` [imidacloprid], for which the lethal amount result in the series on roaches is “about 2.15%”.
Regarding `COc1c(O)c(C=O)c2c(c1C(C)C)C(=O)C1(C)CC(CCC=C(C)C)=CCC1C2=O` (stereo not drawn) [heliocide B3], in series [3], the effect on growth result is “no effect on growth”.
For `CC(C)=CCCC1=CC[C@H]2C(=O)c3c(C=O)c(O)c(O)c(C(C)C)c3C(=O)[C@@]2(C)C1` [heliocide H3], the “effective dosage required to reduce by 50% the growth of larvae” value in [3] is recorded as 3.9 μmoles/g diet.
As to `N#Cc1nn(-c2c(Cl)cc(C(F)(F)F)cc2Cl)c(N)c1[S+]([O-])C(F)(F)F` (stereo not drawn) [fipronil], the lethal amount result in the series with roaches is “about 0.05%”.
Take `COc1c(O)c(C=O)c2c(c1C(C)C)C(=O)C(C)=CC2=O` [Hemigossypolone-6-methyl ether]: the effect on growth result in series [3] is “no effect on growth”.
With `CC(=O)O.Cc1cc2c(C(C)C)c(O)c(O)c(C=O)c2c(O)c1-c1c(C)cc2c(C(C)C)c(O)c(O)c(C=O)c2c1O` [gossypol acetic acid complex, Gossypol acetic acid complex], the “mean time to kill the lab test” value in the series with termites (5 ppm, mixed with a chitin synthesis inhibitor of the benzophenyl urea family or microbes) was “four”. Besides, in the series with termites (500 ppm, not mixed with any other chemicals, fungi, or bacteria), the “time to mortality of a 1000-worker colony” value is reported as “about 2.5 weeks”. Further, the “mean duration to kill the lab test colony” value with termites (concentrations greater than 500 ppm, without any other chemical) is listed as “one”. In addition, the “dose sufficient to weaken the termites and allow other chemicals or microorganisms to induce mortality” value in the series with termites (preliminary results, doses from 5 to 500 ppm, mortality in about two months, no signs of repellency) turned out to be 100 ppm.
